Drawing on the NIST ThermoML archive (doi:10.1016/j.fluid.2018.04.007), this text covers refractive index, mass density and relative permittivity for eleven compounds.

Numbers after ± are expanded uncertainties.

A short description of data set [1]: refractive index (Na D-line) (dimensionless). The conditions noted are these: 101 kPa, Liquid, Standard Abbe refractometry.
The conditions of data set [2]: 101 kPa, Liquid, Vibrating tube method.
A short description of data set [3]: relative permittivity at various frequencies (dimensionless). The settings on record: 101 kPa, Liquid, Frequency=1 MHz, Parallel plate capacitor.
The nature of data set [4]: refractive index (Na D-line) (dimensionless); xn = mol fraction of the nth substance listed. The conditions noted are these: 101 kPa, Liquid, Standard Abbe refractometry, x1 = 1.
Data set [5] is described as follows: relative permittivity at various frequencies (dimensionless); xn = mol fraction of the nth substance listed. The settings on record: 101 kPa, Liquid, Frequency=1 MHz, Parallel plate capacitor, x1 = 1.

By refractive index is commonly meant the speed of light in vacuum divided by its phase velocity in the sample. By mass density is commonly meant mass per unit of volume.

Turning to `CCCCO` [butan-1-ol], the refractive index in data set [1] (293.15 K) is 1.39931 ± 0.00033; in data set [1] (298.15 K), 1.39733 ± 0.00033; in data set [1] (303.15 K), 1.39529 ± 0.00033. The mass density came out at 809.85 ± 1.9 kg/m3 in data set [2] (293.15 K), 806.06 ± 1.9 kg/m3 in data set [2] (298.15 K) and 802.22 ± 1.9 kg/m3 in data set [2] (303.15 K). Moreover, the relative permittivity in data set [3] (293.15 K) amounted to 18.192 ± 0.73; in data set [3] (298.15 K), 17.545 ± 0.71; in data set [3] (303.15 K), 16.933 ± 0.7.

`CCCCCO` [pentan-1-ol] + CCCCCCN: the refractive index in data set [4] (293.15 K) was found to be 1.40985 ± 0.00033; in data set [4] (298.15 K), 1.40793 ± 0.00033; in data set [4] (303.15 K), 1.4059 ± 0.00033. In addition, the relative permittivity was 15.701 ± 0.68 in data set [5] (293.15 K), 15.102 ± 0.67 in data set [5] (298.15 K) and 14.536 ± 0.65 in data set [5] (303.15 K).

Consider `CO` [methanol], for which the refractive index in data set [1] (293.15 K) is given as 1.32862 ± 0.00033; in data set [1] (298.15 K), 1.32654 ± 0.00033; in data set [1] (303.15 K), 1.32439 ± 0.00033. Also, the mass density was found to be 791.63 ± 1.9 kg/m3 in data set [2] (293.15 K), 786.95 ± 1.9 kg/m3 in data set [2] (298.15 K) and 782.22 ± 1.9 kg/m3 in data set [2] (303.15 K). Besides, the relative permittivity was 33.569 ± 0.97 in data set [3] (293.15 K), 32.619 ± 0.96 in data set [3] (298.15 K) and 31.652 ± 0.95 in data set [3] (303.15 K).

In the case of `CCCCCO` [pentan-1-ol], the refractive index was 1.40985 ± 0.00033 in data set [1] (293.15 K), 1.40793 ± 0.00033 in data set [1] (298.15 K) and 1.4059 ± 0.00033 in data set [1] (303.15 K). In addition, the mass density in data set [2] (293.15 K) stood at 814.66 ± 2 kg/m3; in data set [2] (298.15 K) it was 811.03 ± 1.9 kg/m3; in data set [2] (303.15 K), 807.35 ± 1.9 kg/m3. The relative permittivity was found to be 15.701 ± 0.68 in data set [3] (293.15 K), 15.102 ± 0.67 in data set [3] (298.15 K) and 14.536 ± 0.65 in data set [3] (303.15 K).

On to `CCCCCCN` [1-hexanamine], for which the results for the refractive index in data set [1] (293.15 K), in data set [1] (298.15 K) and in data set [1] (303.15 K) were 1.41808 ± 0.00033, 1.41563 ± 0.00033 and 1.41321 ± 0.00033, respectively. Further, the mass density in data set [2] (293.15 K) came out at 764.43 ± 1.8 kg/m3; in data set [2] (298.15 K), 760.19 ± 1.8 kg/m3; in data set [2] (303.15 K), 755.9 ± 1.8 kg/m3. The relative permittivity in data set [3] (293.15 K) is 3.964 ± 0.37; in data set [3] (298.15 K), 3.904 ± 0.37; in data set [3] (303.15 K), 3.846 ± 0.36.

For `CCCCCCCO` [heptan-1-ol], the results for the refractive index in data set [1] (293.15 K), in data set [1] (298.15 K) and in data set [1] (303.15 K) were 1.42425 ± 0.00033, 1.42235 ± 0.00033 and 1.42047 ± 0.00033, respectively. Further, the values for the mass density in data set [2] (293.15 K), in data set [2] (298.15 K) and in data set [2] (303.15 K) were 822.37 ± 2 kg/m3, 818.9 ± 2 kg/m3 and 815.37 ± 2 kg/m3, respectively. Besides, the relative permittivity came to 12.019 ± 0.6 in data set [3] (293.15 K), 11.504 ± 0.59 in data set [3] (298.15 K) and 11.014 ± 0.57 in data set [3] (303.15 K).

As to `CCCO` [propan-1-ol] + CCCCCCN, the refractive index in data set [4] (293.15 K) turned out to be 1.38514 ± 0.00033; in data set [4] (298.15 K) it was 1.38306 ± 0.00033; in data set [4] (303.15 K), 1.38102 ± 0.00033. Further, the figures for the relative permittivity in data set [5] (293.15 K), in data set [5] (298.15 K) and in data set [5] (303.15 K) were 21.15 ± 0.78, 20.449 ± 0.77 and 19.784 ± 0.76, respectively.

Regarding `CCCCCCCO` [heptan-1-ol] + CCCCCCN, the figures for the refractive index in data set [4] (293.15 K), in data set [4] (298.15 K) and in data set [4] (303.15 K) were 1.42425 ± 0.00033, 1.42235 ± 0.00033 and 1.42047 ± 0.00033, respectively. Also, the results for the relative permittivity in data set [5] (293.15 K), in data set [5] (298.15 K) and in data set [5] (303.15 K) were 12.019 ± 0.6, 11.504 ± 0.59 and 11.014 ± 0.57, respectively.

`CO` [methanol] + CCCCCCN: the refractive index in data set [4] (293.15 K) is reported as 1.32862 ± 0.00033; in data set [4] (298.15 K), 1.32654 ± 0.00033; in data set [4] (303.15 K), 1.32439 ± 0.00033. The relative permittivity in data set [5] (293.15 K) is given as 33.569 ± 0.97; in data set [5] (298.15 K), 32.619 ± 0.96; in data set [5] (303.15 K), 33.569 ± 0.97.

Take `CCCO` [propan-1-ol]: the figures for the refractive index in data set [1] (293.15 K), in data set [1] (298.15 K) and in data set [1] (303.15 K) were 1.38514 ± 0.00033, 1.38306 ± 0.00033 and 1.38102 ± 0.00033, respectively. Also, the mass density was found to be 803.66 ± 1.9 kg/m3 in data set [2] (293.15 K), 799.68 ± 1.9 kg/m3 in data set [2] (298.15 K) and 795.66 ± 1.9 kg/m3 in data set [2] (303.15 K). Further, the relative permittivity worked out at 21.15 ± 0.78 in data set [3] (293.15 K), 20.449 ± 0.77 in data set [3] (298.15 K) and 19.784 ± 0.76 in data set [3] (303.15 K).

Consider `CCCCO` [butan-1-ol] + CCCCCCN, for which the refractive index was 1.39931 ± 0.00033 in data set [4] (293.15 K), 1.39733 ± 0.00033 in data set [4] (298.15 K) and 1.39529 ± 0.00033 in data set [4] (303.15 K). For the same compound, the relative permittivity worked out at 18.192 ± 0.73 in data set [5] (293.15 K), 17.545 ± 0.71 in data set [5] (298.15 K) and 16.933 ± 0.7 in data set [5] (303.15 K).
